In US20040137500A1, “Novel polypeptide” (Pfizer Inc, priority 2000, published 2004):

Test system: PFI-020
Assay: FLIPR cell-based assay for agonist activation of PFI-020
Design: species or system human
Conditions: 10 μM; PFI-020-transfected 293 cells (HEK 293 expressing mouse Gα15); Fluo3 FLIPR
Experimental: Fluorescence Imaging Plate Reader (FLIPR®) technology was employed as a means to detect activation of PFI-020 by agonists in a cell-based assay.
5×10^6 Human Embryonic Kidney (HEK) 293 cells expressing the mouse Gα15 gene (from here on called '293 cells′), were transiently transfected with 7.5 μg of PFI-020 (contained within the pcDNA4HIS-max-TOPO (Invitrogen) plasmid) vector, or vector alone, using Lipofectamine Plus® reagent (Gibco BRL) as per the manufacturer's protocol. The plasmid pcDNA4HIS-max-TOPO was used as it contains elements that up-regulate the level of gene transcription over standard pcDNA3.1 vectors. 24 hrs post-transfection, the cells were detached from the flask using Trypsin/EDTA solution (LTI) and seeded into a black sided, poly-D-lysine-treated, 96-well plate (Becton Dickinson) at 5×10^4 cells/well density. […] The FLIPR® processing involved reading the fluorescence for all samples for 2 minutes; during this time the fluorescence baseline was determined for the first 10 seconds. The desired amount of compound was then automatically transferred to the wells and the fluorescence was continuously monitored for the remainder of the time. […]
FIGS. 3, 4, 5 and 6 depict the action of various purinoceptor compounds at a concentration of 10 μM on PFI-020-transfected 293 cells, showing fluorescence intensity versus time (in seconds). […]

Row | Structure (SMILES) | activation of PFI-020 (fluorescence intensity versus time)
1 | Nc1nc(Cl)nc2c1ncn2[C@@H]1O[C@H](COP(=O)([O-])OP(=O)([O-])OP(=O)([O-])[O-])[C@@H](O)[C@H]1O.[Na+].[Na+].[Na+].[Na+] [2-chloro-ATP, 2-chloroadenosine triphosphate tetrasodium] | activated
2 | O=c1ccn([C@@H]2O[C@H](COP(=O)(O)OP(=O)(O)OP(=O)(O)O)[C@@H](O)[C@H]2O)c(=O)[nH]1 [UTP, Uridine triphosphate] | activated
